Test results: publication PMC11284788, “NN1213 – A Potent, Long-Acting, and Selective Analog of Human Amylin” (Journal of Medicinal Chemistry, 2024)
Where two headings read alike, the source gives them in different places. Numbered stars: 1 amine (or outer) side, 2 acyl side, 3 side chain; on linkers, the order of the positions; unused ones are H or OH. Bridge positions count the residues as written; N and C are the ends. Side chains are listed from the residue outwards. Peptide text beside a SMILES is read from it. * marks the point of attachment. C20 diacid = O=C(O)CCCCCCCCCCCCCCCCCCC(=O)*; γGlu = O=C(O)[C@H](CCC(=O)[*:2])N[*:1]

Assays:
[1] = HMWP content by size-exclusion chromatography; type: physicochemical; conditions: analogs 1–9 (pH 7.5 series); covalent dimers and polymers prior to fibril formation testing, SEC, % of total absorbance area at 215 nm
Protocol: The stability properties of the individual amylin analogs were assessed with respect to their propensity toward amyloid fibril formation. The relative amount of covalent dimers and polymers (HMWP) present prior to fibril formation testing was measured as a control for the potential inhibitory effect of HMWP on fibril formation propensity as reported elsewhere.[39]
Elution was performed under isocratic conditions with the following mobile phase prepared in Milli-Q water (Millipore A/S): 0.5 M NaCl, 10 mM sodium dihydrogen monohydrate, 5 mM ortho-phosphoric acid, 50% (v/v) 2-propanol. The amount of HMWP was determined as the absorbance area of the corresponding peaks given in percentage of the total absorbance area. The molar extinction coefficients of the molecules eluting in the HMWP fraction and the main peak was assumed to be equal.

rat AMY3R = target: T1, rat AMY3R (Rattus norvegicus, UniProt P32214+Q9JJ73); test: cAMP FlashPlate assay, rat AMY3R; type: cell-based; conditions: for EC50: cAMP (rat receptor assay)
T1 construct: expressed in transfected cells; host or cells: BHK tk-ts 13, transient co-transfection (FuGENE 6)
T1 sequence (P32214 25-479 isoform P32214-2 limits assumed): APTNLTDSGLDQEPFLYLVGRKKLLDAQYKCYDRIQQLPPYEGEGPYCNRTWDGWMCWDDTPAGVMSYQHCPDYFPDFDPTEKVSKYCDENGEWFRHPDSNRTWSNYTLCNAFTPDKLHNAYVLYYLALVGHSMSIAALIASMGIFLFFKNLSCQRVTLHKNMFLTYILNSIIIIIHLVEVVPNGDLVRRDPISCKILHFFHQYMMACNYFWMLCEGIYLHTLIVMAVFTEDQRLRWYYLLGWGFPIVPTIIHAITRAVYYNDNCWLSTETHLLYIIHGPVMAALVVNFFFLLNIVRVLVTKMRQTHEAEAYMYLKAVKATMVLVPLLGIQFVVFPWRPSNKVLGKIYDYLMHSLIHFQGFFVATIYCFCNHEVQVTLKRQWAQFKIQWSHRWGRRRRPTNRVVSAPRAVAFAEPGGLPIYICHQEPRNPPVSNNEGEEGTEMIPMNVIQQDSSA
T1 sequence (Q9JJ73 23-147 partner): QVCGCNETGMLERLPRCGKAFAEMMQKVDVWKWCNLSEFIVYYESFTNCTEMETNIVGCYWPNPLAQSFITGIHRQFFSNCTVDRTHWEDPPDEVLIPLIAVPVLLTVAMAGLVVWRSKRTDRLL

[2] = Solubility versus pH profile
[3] = ThT assay: fibril formation propensity and peptide recovery; type: physicochemical
Protocol: The stability properties of the individual amylin analogs were assessed with respect to their propensity toward fibril formation, expressed as the time until fibril formation (measured as Lag time) and loss of dissolved peptide (assessed as Peptide Recovery). […] Samples were prepared as described previously (using the same methodology and materials) for a novel amylin-based analog candidate compound.[7]
Briefly, each compound was dissolved in 10 mM of glycylglycine buffer (pH 4.0) or HEPES buffer (pH 7.5) to a concentration of 250 μM, followed by ThT stock solution to a final concentration of 1 μM. Each solution was aliquoted into a microtiter plate (200 μL/well) sealed with a transparent adhesive sheet. Mechanical stress was applied at 37 °C incubation (960 rpm, 1 mm amplitude) with 20 min fluorescence reading intervals for 45 h (filters: excitation 444 nm; emission 485 nm). Each peptide was tested in experiments consisting of four replicas (e.g., four wells on the same plate), and the lag time of each replica was determined by visual inspection of the fluorescence-versus-time plot. For wells where no fibril formation could be detected, the lag time was set longer than the test period (>45 h). The lag time of the peptide was set to the lowest lag time of the four replicates (conservative estimate). Some of the peptides were tested in more than one experiment, and the lag time results given in Tables 6 and 9 represent the average of these experiments. The ThT time course data given in Supporting Information represent the average and SEM of each experiment.[40] After analysis, wells representing individual replicas were pooled, and the residual soluble peptide was isolated using centrifugation (20,000 g/30 min at room temperature) followed by […] filtration. The amount of residual dissolved peptide was determined using an HPLC with a flow rate of 2 mL/min at 30 °C and 215/276 nm detection. A gradient combining eluent A (7.7% w/w acetonitrile, 200 mM Na2SO4, 20 mM NaH2PO4, 20 mM Na2HPO4, pH 7.2) and eluent B (65.5% w/w acetonitrile) was applied. The amount of residual dissolved peptide was reported on a relative scale (Peptide Recovery) to the amount of dissolved peptide prior to mechanical stress.

rat CTR = target: T2, rat CTR (Rattus norvegicus, UniProt P32214); test: cAMP FlashPlate assay, rat CTR; type: cell-based; conditions: cAMP (rat receptor assay)
T2 construct: expressed in transfected cells; host or cells: BHK tk-ts 13, transient (FuGENE 6)
T2 sequence (P32214 25-479 isoform P32214-2 limits assumed): T1 sequence (P32214 25-479 isoform P32214-2 limits assumed)

hCTR = target: T3, hCTR (Homo sapiens, UniProt P30988); test: cAMP-responsive element luciferase reporter assay, human CTR; type: cell-based; conditions: luciferase (human receptor assay)
T3 sequence (P30988 25-474): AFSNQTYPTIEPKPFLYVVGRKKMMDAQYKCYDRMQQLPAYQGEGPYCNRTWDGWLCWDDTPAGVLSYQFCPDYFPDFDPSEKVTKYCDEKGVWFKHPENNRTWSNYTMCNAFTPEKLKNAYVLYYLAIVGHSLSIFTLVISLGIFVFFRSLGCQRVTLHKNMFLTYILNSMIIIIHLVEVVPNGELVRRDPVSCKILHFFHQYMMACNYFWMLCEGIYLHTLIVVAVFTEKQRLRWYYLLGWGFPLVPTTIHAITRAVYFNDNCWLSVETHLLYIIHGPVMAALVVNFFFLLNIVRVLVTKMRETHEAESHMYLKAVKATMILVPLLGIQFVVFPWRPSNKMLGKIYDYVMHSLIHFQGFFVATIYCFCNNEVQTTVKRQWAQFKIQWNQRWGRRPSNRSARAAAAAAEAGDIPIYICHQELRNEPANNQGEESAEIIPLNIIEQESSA

hAMY3R = target: T4, hAMY3R (Homo sapiens, UniProt O60896+P30988); test: cAMP-responsive element luciferase reporter assay, human AMY3R; type: cell-based; parameters: expressed in transfected cells; conditions: for EC50: luciferase (human receptor assay)
T4 sequence (P30988 25-474): T3 sequence (P30988 25-474)
T4 sequence (O60896 24-148 partner): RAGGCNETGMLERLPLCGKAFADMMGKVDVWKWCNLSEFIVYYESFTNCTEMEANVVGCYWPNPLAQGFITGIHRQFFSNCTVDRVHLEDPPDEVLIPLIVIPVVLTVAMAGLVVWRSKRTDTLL

rats = conditions: cited from earlier work
Text: SEM is the standard error of the mean. || From the daily consumption of food observed in the DIO rats, the steep decrease around day 2 is a typical pattern observed with appetite-reducing agents in rodents.[31]

cAMY3R = test: Species-specific cAMP assay, cAMY3R; conditions: cAMP HTRF, transiently transfected BHK cells, 30 min room temperature, five experiments
cAMY1R = test: Species-specific cAMP assay, cAMY1R; conditions: cAMP HTRF, transiently transfected BHK cells, 30 min room temperature, five experiments
cCTR = test: Species-specific cAMP assay, cCTR; conditions: cAMP HTRF, transiently transfected BHK cells, 30 min room temperature, five experiments
[4] = single sc injection of 30 nmol/kg, published previously

SMILES: CC(C)C[C@H](NC(=O)[C@H](CCCNC(=N)N)NC(=O)[C@H](CCC(N)=O)NC(=O)[C@@H](NC(=O)[C@H](C)NC(=O)[C@@H]1CSSC[C@H](NC(=O)[C@@H](N)CCCCNC(=O)CC[C@H](NC(=O)CCCCCCCCCCCCCCCCCCC(=O)O)C(=O)O)C(=O)N[C@@H](CC(N)=O)C(=O)N[C@@H]([C@@H](C)O)C(=O)N[C@@H](C)C(=O)N[C@@H]([C@@H](C)O)C(=O)N1)[C@@H](C)O)C(=O)N[C@@H](C)C(=O)N[C@@H](CC(=O)O)C(=O)N[C@@H](Cc1ccccc1)C(=O)N[C@@H](CC(C)C)C(=O)N[C@@H](CCCNC(=N)N)C(=O)N[C@@H](Cc1c[nH]cn1)C(=O)N[C@@H](CO)C(=O)N[C@@H](CO)C(=O)N[C@@H](CCC(N)=O)C(=O)N[C@@H](CC(N)=O)C(=O)N[C@@H](Cc1ccccc1)C(=O)NCC(=O)N[C@@H](C)C(=O)N1CCC[C@H]1C(=O)N[C@@H](CC(C)C)C(=O)N[C@@H](CO)C(=O)N[C@@H](CO)C(=O)N[C@H](C(=O)N1CCC[C@H]1C(=O)N[C@H](C(=O)NCC(=O)N[C@@H](CO)C(=O)N[C@@H](CC(=O)O)C(=O)N[C@H](C(=O)N[C@@H](Cc1ccc(O)cc1)C(N)=O)[C@@H](C)O)C(C)C)[C@@H](C)O [Peptide 1] (H-K([γGlu-C20 diacid])CNTATCATQRLADFLRHSSQNFGAPLSSTPVGSDTY-NH2; disulfide 2-7)
- HMWP [1]: 7%
- EC50 (rat AMY3R; Tables S12 and S14, read-out: rAMY3R pEC50 (converted)): 0.468 nM
- EC50 (rat AMY3R; transiently transfected BHK tk-ts 13 cells, FlashPlate, 30 min room temperature, 2% HSA, read-out: rAMY3R EC50): 0.463 nM
- ratio rCTR/rAMY3R (rat AMY3R; ratio of cAMP EC50 values): 31
- solubility kinetic ([2]; bis-tris-propane buffer, pH 6, aqueous buffer): ≥ 200 µM
- solubility kinetic ([2]; bis-tris-propane buffer, pH 6.5, aqueous buffer): ≥ 200 µM
- solubility kinetic ([2]; bis-tris-propane buffer, pH 7, aqueous buffer): ≥ 200 µM
- solubility kinetic ([2]; bis-tris-propane buffer, pH 7.5, aqueous buffer): ≥ 200 µM
- solubility kinetic ([2]; bis-tris-propane buffer, pH 8, aqueous buffer): ≥ 200 µM
- solubility kinetic ([2]; lactate buffer, pH 4, aqueous buffer): ≥ 200 µM
- solubility kinetic ([2]; lactate buffer, pH 5, aqueous buffer): ≥ 200 µM
- ThT, pH 7.5 lag-time ([3]; 250 μM peptide, 10 mM HEPES pH 7.5, 1 μM ThT, 37 °C, 960 rpm, 45 h, lowest of four replicas, average of experiments): >45 h
- recovery ([3]; pH 7.5, residual dissolved peptide after 45 h of shaking, centrifugation and 0.22 μm filtration, HPLC, relative to amount before stress): 100%
- EC50 (rat CTR; Tables S12 and S14, read-out: rCTR pEC50 (converted)): 14.5 nM
- EC50 (rat CTR; transiently transfected BHK tk-ts 13 cells, FlashPlate, 30 min room temperature, 2% HSA, read-out: rCTR EC50): 14.3 nM
- EC50 (hCTR; Tables S12 and S14, read-out: hCTR pEC50 (converted)): 0.692 nM
- EC50 (hCTR; BHK cells stably expressing hCTR and CRE-luciferase, 3 h, 37 °C, 10% FBS, read-out: hCTR EC50): 0.697 nM
- EC50 (hAMY3R; Tables S12 and S14, read-out: hAMY3R pEC50 (converted)): 0.182 nM
- EC50 (hAMY3R; BHK cells stably expressing hCTR+RAMP3 and CRE-luciferase, 3 h, 37 °C, 10% FBS, read-out: hAMY3R EC50): 0.18 nM
- ratio hCTR/hAMY3R (hAMY3R; ratio of luciferase EC50 values): 3.9

SMILES: CC[C@H](C)[C@H](NC(=O)[C@@H]1CCCN1C(=O)CNC(=O)[C@H](Cc1ccccc1)NC(=O)[C@H](CC(N)=O)NC(=O)[C@H](CC(N)=O)NC(=O)[C@H](CO)NC(=O)[C@H](CO)NC(=O)[C@H](Cc1c[nH]cn1)NC(=O)[C@H](CCCNC(=N)N)NC(=O)[C@H](CC(C)C)NC(=O)[C@H](Cc1ccccc1)NC(=O)[C@H](CCC(=O)O)NC(=O)[C@H](C)NC(=O)[C@H](CC(C)C)NC(=O)[C@H](CCCNC(=N)N)NC(=O)[C@H](CCC(N)=O)NC(=O)[C@@H](NC(=O)[C@H](C)NC(=O)[C@@H]1CSSC[C@H](NC(=O)[C@H](CCCCN)NC(=O)CC[C@H](NC(=O)CCCCCCCCCCCCCCCCCCC(=O)O)C(=O)O)C(=O)N[C@@H](CC(N)=O)C(=O)N[C@@H]([C@@H](C)O)C(=O)N[C@@H](C)C(=O)N[C@@H]([C@@H](C)O)C(=O)N1)[C@@H](C)O)C(=O)N[C@@H](CC(C)C)C(=O)N1CCC[C@H]1C(=O)N1CCC[C@H]1C(=O)N[C@H](C(=O)N[C@@H](CC(N)=O)C(=O)N[C@H](C(=O)NCC(=O)N[C@@H](CO)C(=O)N[C@@H](CC(N)=O)C(=O)N[C@H](C(=O)N1CCC[C@H]1C(N)=O)[C@@H](C)O)C(C)C)[C@@H](C)O [cagrilintide]
- reduction in food intake in rats (rats): 45%
- reduction of food intake 0−24 h (rats; [4]): 85%
- reduction of food intake 24–48 h (rats; [4]): 84%

SMILES: CC(C)C[C@H](NC(=O)[C@H](CCCCN)NC(=O)CNC(=O)[C@H](CC(C)C)NC(=O)[C@@H](NC(=O)[C@@H]1CSSC[C@H](N)C(=O)N[C@@H](CO)C(=O)N[C@@H](CC(N)=O)C(=O)N[C@@H](CC(C)C)C(=O)N[C@@H](CO)C(=O)N[C@@H]([C@@H](C)O)C(=O)N1)C(C)C)C(=O)N[C@@H](CO)C(=O)N[C@@H](CCC(N)=O)C(=O)N[C@@H](CCC(=O)O)C(=O)N[C@@H](CC(C)C)C(=O)N[C@@H](Cc1c[nH]cn1)C(=O)N[C@@H](CCCCN)C(=O)N[C@@H](CC(C)C)C(=O)N[C@@H](CCC(N)=O)C(=O)N[C@H](C(=O)N[C@@H](Cc1ccc(O)cc1)C(=O)N1CCC[C@H]1C(=O)N[C@@H](CCCNC(=N)N)C(=O)N[C@H](C(=O)N[C@@H](CC(N)=O)C(=O)N[C@H](C(=O)NCC(=O)N[C@@H](CO)C(=O)NCC(=O)N[C@H](C(=O)N1CCC[C@H]1C(N)=O)[C@@H](C)O)[C@@H](C)O)[C@@H](C)O)[C@@H](C)O [sCT, salmon calcitonin, reference compound]
- cAMY3R pEC50 (cAMY3R): 11.16
- cAMY1R pEC50 (cAMY1R): 10.61
- cCTR pEC50 (cCTR): 11.27
